Laboratory results reported in the supplement of paper PMC10307832.

Legend:
Assay in all cases: relative viability (nuclei count vs DMSO), 5 days (fraction); higher = more cells survive
[1] = compound: Cn1cc(-c2cnn3c(N)c(Br)c([C@@H]4CCCNC4)nc23)cn1 + CCNC(=O)c1noc(-c2cc(C(C)C)c(O)cc2O)c1-c1ccc(CN2CCOCC2)cc1 [Luminespib] (partner 0.01 µM)
Procedure, shortened: (§1)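 Lung cancer cell lines in 1536-well plates got either a single drug or a fixed anchor-drug dose together with five library-drug doses (not always all listed) in √10 steps, by pin tool, on the day after seeding. Nuclei were counted after 5 days, and relative viability is the treated-to-vehicle ratio of nuclei counts. Values are medians of duplicate plates.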

[2] = compound: Cn1cc(-c2cnn3c(N)c(Br)c([C@@H]4CCCNC4)nc23)cn1 + C[C@]1(O)C[C@@H](c2nc(-c3ccc4ccc(-c5ccccc5)nc4c3)c3c(N)nccn32)C1 [Linsitinib] (partner 1 µM)
Procedure, shortened: as §1

[3] = compound: Cn1cc(-c2cnn3c(N)c(Br)c([C@@H]4CCCNC4)nc23)cn1 + CS(=O)(=O)CCNCc1ccc(-c2ccc3ncnc(Nc4ccc(OCc5cccc(F)c5)c(Cl)c4)c3c2)o1 [Lapatinib] (partner 2 µM)
Procedure, shortened: as §1

[4] = compound: Cn1cc(-c2cnn3c(N)c(Br)c([C@@H]4CCCNC4)nc23)cn1 + COc1cccc2cc(-c3nc([C@H]4CC[C@H](C(=O)O)CC4)n4ncnc(N)c34)[nH]c12 [OSI-027] (partner 0.5 µM)
Procedure, shortened: as §1

| Cell Line | relative viability ([1]; first compound 0.05 µM) | relative viability ([1]; first compound 0.1581 µM) | relative viability ([1]; first compound 0.5 µM) | relative viability ([1]; first compound 1.581 µM) | relative viability ([1]; first compound 5 µM) | relative viability ([2]; first compound 0.05 µM) | relative viability ([2]; first compound 0.1581 µM) | relative viability ([2]; first compound 0.5 µM) | relative viability ([2]; first compound 1.581 µM) | relative viability ([2]; first compound 5 µM) | relative viability ([3]; first compound 0.05 µM) | relative viability ([3]; first compound 0.1581 µM) | relative viability ([3]; first compound 0.5 µM) | relative viability ([3]; first compound 1.581 µM) | relative viability ([3]; first compound 5 µM) | relative viability ([4]; first compound 0.05 µM) | relative viability ([4]; first compound 0.1581 µM) | relative viability ([4]; first compound 0.5 µM) | relative viability ([4]; first compound 1.581 µM) | relative viability ([4]; first compound 5 µM) |
| --- | --- | --- | --- | --- | --- | --- | --- | --- | --- | --- | --- | --- | --- | --- | --- | --- | --- | --- | --- | --- |
| ABC-1 | 0.439 | 0.338 | 0.484 | 0.361 | 0.265 | 0.801 | 1.01 | 0.781 | 0.716 | 0.288 | 1.18 | 1.18 | 1.18 | 1.26 | 1.04 | 0.518 | 0.58 | 0.382 | 0.39 | 0.264 |
| A-427 | 1.36 | 0.923 | 0.889 | 0.571 | 0.403 | 1.12 | 1.15 | 1.06 | 1.06 | 1 | 0.979 | 1.14 | 0.986 | 0.839 | 0.959 | 0.495 | 0.474 | 0.453 | 0.357 | 0.31 |
| LCLC-97TM1 | 0.874 | 0.844 | 0.743 | 0.654 | 0.777 | 0.194 | 0.2 | 0.184 | 0.21 | 0.176 | 0.86 | 1.3 | 0.976 | 0.915 | 0.774 | 0.459 | 0.558 | 0.545 | 0.391 | 0.487 |
| HCC-15 | 0.636 | 0.419 | 0.396 | 0.198 | 0.382 | 0.98 | 0.997 | 0.824 | 0.838 | 0.829 | 0.952 | 0.949 | 0.648 | 0.811 | 0.827 | 0.781 | 0.739 | 0.682 | 0.566 | 0.533 |
| NCI-H647 | 0.232 | 0.262 | 0.127 | 0.106 | 0.104 | 1.12 | 1.24 | 0.85 | 0.796 | 0.42 | 1.43 | 1.22 | 1.17 | 0.497 | 0.275 | 0.66 | 0.718 | 0.612 | 0.588 | 0.479 |
| SW 1573 | 0.211 | 0.288 | 0.21 | 0.185 | 0.146 | 0.689 | 0.775 | 0.888 | 0.753 | 0.805 | 1.14 | 1.22 | 1.15 | 1.01 | 1.1 | 0.547 | 0.745 | 0.606 | 0.505 | 0.465 |
| NCI-H1651 | 0.721 | 0.767 | 0.848 | 0.327 | 0.195 | 0.949 | 0.977 | 0.869 | 0.574 | 0.356 | 0.733 | 0.874 | 0.708 | 0.494 | 0.367 | 0.653 | 0.787 | 0.618 | 0.453 | 0.242 |
| NCI-H1792 | 0.488 | 0.616 | 0.439 | 0.79 | 0.317 | 0.709 | 0.531 | 0.347 | 0.327 | 0.274 | 0.84 | 1.06 | 0.335 | 0.718 | 0.784 | – | 0.91 | 0.677 | 0.574 | 0.719 |
